Format in all cases: cell-based
The test system of assay [1] is MCF-7 human breast cancer cells. Briefly: XTT cytotoxicity assay (M). The settings on record: MCF7. As for the experimental part:
The XTT assay is a non-radioactive alternative for the [^51Cr] release cytotoxicity assay. XTT is a tetrazolium salt that is reduced to a formazan dye only by metabolically active, viable cells. The reduction of XTT is measured spectrophotometrically as OD490-OD650.
To measure the cytotoxicity of specific compounds against cancer cells, 9×10^3 MCF-7 human breast cancer cells, obtained from the American Type Culture Collection are plated per well in 96 well plates in DMEM medium with 10% fetal bovine serum, insulin, penicillin, and streptomycin. Following overnight culture at 37° C. and 5% CO2, the compounds to be tested, dissolved in DMSO, are added to the wells in 1 μl volume at the following concentrations: 80, 40, 20, 10, 5, 2.5, 1.25, and 0.625 μg/ml in triplicate. Additional concentrations are tested if required. 1 μl of DMSO is added to triplicate wells are the vehicle control. C75 is run at 40, 20, […], and 5 μg/ml in triplicate as positive controls.
After 72 hours of incubation, cells are incubated for 4 hours with the XTT reagent as per manufacturer's instructions (Cell Proliferation Kit II (XTT) Roche). Plates are read at OD490 and OD650 on a Molecular Devices SpectraMax Plus Spectrophotometer. Three wells containing the XTT reagent without cells serve as the plate blank. XTT data are reported as OD490-OD650. Averages and standard error of the mean are computed using SOFTmax Pro software ([…]).
The IC50 for the compounds is defined as the concentration of drug leading to a 50% reduction in OD490-OD650 compared to controls. The OD490-OD650 are computed by the SOFTmax PRO software (Molecular Devices) for each compound concentration. IC50 is calculated by linear regression, plotting the FAS activity as percent of control versus drug concentrations. Linear regression, best-fit line, r^2, and 95% confidence intervals are determined using Prism Version 3.0 (Graph Pad Software).
In general terms: Tetrazolium dyes change colour on reduction, which living cells bring about.

Assay [2] has as its system fatty acid oxidation. Briefly: β-Oxidation assay, isolation of acid soluble products. Also noted: Beta Oxidation: unit not given here. The conditions noted are these: for FAO MAx: maximal fatty acid oxidation, at the concentration given under E32. As for the experimental part: β-Oxidation Assay—Isolation of Acid Soluble Products A 24 well plate with 1 ml per well was prepared with 2.5×10^5 cells/well. The cells were incubated O/N. The next day, a solubilized palmitate solution was prepared. 50 μls of (1-^14C) Palmitic acid was added to a 2 ml centrifuge tube and dried under nitrogen gas. 2 mls of α-CD (α-Cyclodextran)-10 mg/ml in 10 mM Tris were added. This solution was incubated in a 37° C. water bath for 30 minutes. A hot mix was prepared by adding 25 μls of this solution to 2.5 μls of 200 μM Carnitine and 222.5 μls of serum free medium that is used for cells. The cells were then treated with the test compound in triplicate, and incubated at 37° C. for 60 minutes. The medium was removed and 250 μls of the hot mix were added. The test compound was added again, and further incubated at 37° C. for 60 minutes. The reaction was stopped with 50 μls of 2.6 N HClO4. The contents of the plate were transferred to a 1.5 ml centrifuge tube, and 50 μls of 4N KOH were then added, and the tube incubated in a 60° C. water bath for 30 min. Sodium acetate (1M, 75 μls) and sulfuric acid (3N, 50 μls) were added to the solution and vortexed. The tube was spun for 7 minutes at 1000 rpm at room temperature. A portion (225 μls) was removed, and the following were added (vortex after each addition, twice at the end): 938 μls of 1:1 Chloroform:Methanol; 468 μls of Chloroform; 281 μls distilled Water. The tubes were spun at 1000 rpm for 5 minutes. The upper phase was removed into a large glass scintillation vial and 5 mls of Budget solvent (scintillation liquid) was added. The tubes were well vortexed. Finally, C14 was counted for one minute.

Assay [3] relates to Pseudomonas aeruginosa (ATCC #27853). The experiment in a line: Broth microdilution MIC, P. aeruginosa. As for the experimental part:
A broth microdilution assay is used to assess the antimicrobial activity of the compounds. Compounds are tested at twofold serial dilutions, and the concentration that inhibits visible growth (OD600 at 10% of control) is defined as the MIC. Microorganisms tested include Staphylococcus aureus (ATCC #29213), Enterococcus faecalis (ATCC #29212), Pseudomonas aeruginosa (ATCC #27853), and Escherichia coli (ATCC #25922). The assay is performed in two growth media, Mueller Hinton Broth and Trypticase Soy Broth.
A blood (Tsoy/5% sheep blood) agar plate is inoculated from frozen stocks maintained in T soy broth containing 10% glycerol and incubated overnight at 37° C. Colonies are suspended in sterile broth so that the turbidity matches the turbidity of a 0.5 McFarland standard. The inoculum is diluted 1:10 in sterile broth (Mueller Hinton or Trypticase soy) and 195 ul is dispensed per well of a 96-well plate. […]
After 24 hours of incubation at 37° C., plates are read at OD600 on a Molecular Devices SpectraMax Plus Spectrophotometer. Average OD600 values are computed using SOFTmax Pro Software (Molecular Devices) and MIC values are determined by linear regression analysis using Prism version 3.02 (Graph Pad Software, San Diego). […]

Converted amounts (≈) assume the structure as drawn. “And” between values parts separate entries of the source, which are not always exact repeats. Equal values may be shown once.

What is called IC50 is the concentration at which inhibition is half-maximal. For `CCCCCCCCCCC1(C)SC(=O)C(C)(C)C1=O` (centres unmarked) [Compound 12, 3,3,5-Trimethyl-5-decyl-thiophene-2,4-dione], the IC50 in assay [1] turned out to be 23.2 mg/L (≈ 77.7 µM). In addition, the “FAO MAx, concentration at maximum” value in assay [2] was 1.56 µg/mL. In addition, the “FAO SC 150” value in assay [2] came out at 1.4 µg/mL. The “Beta Oxidation” value in assay [2] (0.097 ug/ml) stood at 100; in assay [2] (0.39 ug/ml) it was 120; in assay [2] (1.56 ug/ml), 154; in assay [2] (6.25 ug/ml), 141; in assay [2] (25 ug/ml), 75; in assay [2] (100 ug/ml), 68. Further, the “FAO MAx” value in assay [2] is given as 154%.

Consider `C=CCC1(CC=C)C(=O)SC(C)(CCCCCCCC)C1=O` (racemic) [Compound 4, 3,3-Diallyl-5-methyl-5-octyl-thiophene-2,4-dione], for which the midpoint of inhibition in assay [1], the IC50, lay at 40.5 ± 14.8 mg/L (≈ 126 µM). Also, the “PSAE/MH (MIC)” value in assay [3] (Mueller Hinton Broth) is “Neg”. In addition, the PSAE/Tsoy result in assay [3] (Trypticase Soy Broth) is listed as “Neg”. For the same molecule, the “Beta Oxidation” value in assay [2] (1.25 ug/ml) was 94 and 151; in assay [2] (2.5 ug/ml), 114 and 163; in assay [2] (5 ug/ml), 120 and 154 and 177; in assay [2] (10 ug/ml), 163 and 177 and 184; in assay [2] (20 ug/ml), 147; in assay [2] (40 ug/ml) it was 101.

`C=CCC1(CC=C)C(=O)SC(C)(CCCCCCCCCC)C1=O` (centres unmarked) [Compound 15, 3,3-Diallyl-5-methyl-5-decyl-thiophene-2,4-dione] gave a half-inhibitory concentration (IC50) in assay [1] of 71.8 mg/L (≈ 205 µM). The “FAO MAx, concentration at maximum” value in assay [2] was 25 µg/mL. Further, the “FAO SC 150” value in assay [2] was 16.0 µg/mL. Further, the “Beta Oxidation” value in assay [2] (0.097 ug/ml) was 105; in assay [2] (0.39 ug/ml), 114; in assay [2] (1.56 ug/ml), 127; in assay [2] (6.25 ug/ml), 138; in assay [2] (25 ug/ml) it was 165; in assay [2] (100 ug/ml), 150. The “FAO MAx” value in assay [2] is listed as 165%.

The values above are taken from US20090005435A1, “Novel Compounds, Pharmaceutical Compositions Containing Same, and Methods of Use for Same” (priority 2004, published 2009).
